Reference: patent US9315806B2, “Massively parallel combinatorial genetics” (Massachusetts Institute of Technology, priority 2012, dated 2016)

What was measured:
E. coli NDM-1 strain = assay: microbe, parasite or virus in culture; format: cell-based; details: for MIC: Escherichia coli, NDM1STRAIN, read-out: NDM-1 MICs, Tested; for NDM-1 MICs, Tested: for piperacillin-tazobactam the piperacillin concentration
[1] = test system: Klebsiella pneumoniae NDM-1 clinical isolate; details: original Klebsiella pneumoniae NDM-1 isolate; cited from earlier work
[2] = test system: aTc-inducible pLtetO promoters; assay: aTc induction of GFP/mCherry pairwise combinations; format: cell-based, E. coli; details: DH5a colonies, increasing concentrations of aTc
Text: Next, to test gene expression, a barcoded vector library of GFP and mCherry was constructed under the control of aTc-inducible pLtetO promoters with a T1+T7 fusion terminator downstream of each ORF. Each vector contained the high-copy ColE1 origin, tetR under control of a constitutive promoter, and cat conferring chloramphenicol resistance.
An insert library was generated via PCR, creating a pairwise combinatorial set as in FIG. 5 that was then transformed into DH5a cells. Twenty-four colonies were isolated and grown in increasing concentrations of aTc along with positive and negative controls (FIG. 7).

[3] = test system: Tet-ON expression system (rtTA); assay: Tet-ON induction tested with fluorescent proteins (eGFP, mCherry); format: cell-based; details: yeast strains with integrated rtTA
Text: (§1) The repetitive Aβ or αSyn expression array was integrated in yeast genome (the W303 background) and controlled by galactose induction. FIG. 28 depicts a yeast strain generated by integrating multiple tandem copies of αSyn with a galactose (Gal)-inducible promoter. In order to minimize the size of plasmid backbone for library construction, the reverse tetracycline transactivator (rtTA), part of the Tet-ON expression system (Gossen, M. et al., Science […]:1766-9 (1995)), was integrated into both yeast strains. The Tet-ON induction was tested by using different fluorescent proteins (such as eGFP and mCherry), and consistently detected robust gene activation (about 50-fold increase) with doxycycline (Dox) treatment. […] Similarly, the rtTA was successfully integrated in wild-type strain (the BY4741 background) to study longevity.

[4] = test system: yeast strains (Aβ or αSyn expression array, W303 background); assay: Cell growth and inducible amyloid toxicity of yeast model strains; format: cell-based; details: yeast strains with integrated rtTA
Text: as §1

Question: For `CC1(C)S[C@@H]2[C@H](NC(=O)[C@H](N)c3ccc(O)cc3)C(=O)N2[C@H]1C(=O)O` [Amoxicillin], which MIC (E. coli NDM-1 strain) is on record?
Answer: > 512 µg/mL

Question: Which MIC (E. coli NDM-1 strain) does the source give for `CO/N=C(\C(=O)N[C@@H]1C(=O)N2C(C(=O)O)=C(CSc3nc(=O)c(=O)[nH]n3C)CS[C@H]12)c1csc(N)n1` [Ceftriaxone] here?
Answer: > 128 µg/mL

Question: And the “NDM-1 MICs, Previously Reported” value [1]?
Answer: >32 µg/mL

Question: With `C[C@@H](O)[C@H]1C(=O)N2C(C(=O)O)=C(SCCN=CN)C[C@H]12` [Imipenem] as the compound, how does the MIC (E. coli NDM-1 strain) read?
Answer: > 32 µg/mL

Question: Which “on/off ratios of induction” value [2] does the source give for `Cc1c2c(c(O)c3c(O)cccc13)C(=O)[C@]1(O)C(O)=C(C(N)=O)C(=O)[C@@H](N(C)C)[C@@H]1C2` [aTc] here?
Answer: 150-300 x

Question: Which “Gene activation (Tet-ON induction)” value [3] does the source give for `C[C@H]1c2cccc(O)c2C(=O)C2=C(O)[C@]3(O)C(=O)C(C(N)=O)=C(O)[C@@H](N(C)C)[C@@H]3[C@@H](O)[C@@H]21` [doxycycline] here?
Answer: about 50 fold

Question: And the “Effect on cell growth or inducible amyloid toxicity” value [4]?
Answer: neither the integrated rtTA nor the Dox treatment affects cell growth or the inducible amyloid toxicity

Question: With Colistin as the compound, how does the “NDM-1 MICs, Tested” value (E. coli NDM-1 strain; E. coli NDM-1) read?
Answer: <0.125 µg/mL

Question: What about the “NDM-1 MICs, Previously Reported” value [1] of the same compound?
Answer: 0.25 µg/mL

Question: Which results are given for Gentamicin?
Answer: NDM-1 MICs, Tested (E. coli NDM-1 strain; E. coli NDM-1): >256 µg/mL; NDM-1 MICs, Previously Reported [1]: >10 µg/mL

Question: What does the source list for Piperacillin-Tazobactam?
Answer: NDM-1 MICs, Tested (E. coli NDM-1 strain; E. coli NDM-1): > 256 µg/mL; NDM-1 MICs, Tested, tazobactam concentration (E. coli NDM-1 strain; E. coli NDM-1, tazobactam part of piperacillin-tazobactam): 32 µg/mL; NDM-1 MICs, Previously Reported [1]: >128 µg/mL
